According to US20230096528A1, “Pharmaceutical Composition for Treatment or Prevention of Multiple Inflammatory disorders” (priority 2019, published 2023):

How the values were obtained:
[1] = system: biomarkers (chemokines, CSFs, interleukins, IFNs); test: Biomarkers compared across many studies (Table 2); format: in vivo; details: PO 92.4 mg/kg DA BID
Method: The many examples provided herein show the effect of the denatonium salts on various in vivo and in vitro models of various disease indications. In addition, blood samples were taken from the tested (and control) animals and various biomarkers were measured and compared. FIGS. 70A-C show graphs comparing biomarkers across many studies. […] It should be noted that clusters of multiple biomarkers predict effectiveness for each disease indication and that grouping is shown in FIG. 71.

[2] = system: microbial populations in a nonalcoholic steatohepatitis (NASH) mouse model; test: Microbiome study in NASH mouse model on AMLN diet (Example 4); format: in vivo, C57BL/6 mice
Description: There were changes in the microbiome in a mice model using a high-fat diet after 4 weeks of treatment with and without administering DA orally. The high fat diet itself induced extensive changes in the microbial populations in all groups. Importantly though, there was a pronounced difference between the DA treatment group and the control group at week 4.
Classifications of the different organisms that changed in the control and treatment groups at 4 weeks and observed extensive changes in the primary or dominant phylum groups of bacteria, as well as on a family and genus level were made. […] The diversity at 4 weeks dropped over the study course in both control and treatment group due to dietary impact.
The genetic potential of treatment-induced changes in relation to predicted physiological and metabolic pathways were aligned with observed benefits of treatment with DA with regards to attenuating inflammation and metabolic syndrome. The majority of the pathways being impacted were directly related to a decrease in inflammation and are known to be beneficial to cardiovascular health and other conditions related to the metabolic syndrome in humans. Observations included: • Increased metabolism of unsaturated fatty acids • Increased metabolism of arachidonic acid • Increased metabolism of cofactors and vitamins • Increased lysine degradation • Increased glycolysis and gluconeogenesis • Increased phosphatidylinositol signaling • Decreased arginine and ornithine metabolism Below Changes from Phylum à Family à Genus Level
The effect of a small molecule oral TAS2R agonist (DA) was investigated on microbial populations in a nonalcoholic steatohepatitis (NASH) mouse model. Two groups of 4-week-old male C57BL/6 mice (20/group) were fed Amylin Liver NASH (AMLN) diet and received daily doses of ARD-101 (30 mg/mL in water) or vehicle (water) via intragastric gavage. DNA was isolated from fecal samples collected at week 0 and 4, and microbial ecology was evaluated using bTEFAP (bacterial tag-encoded FLX amplicon pyrosequencing). Operational taxonomic units were classified using BLAST against a curated NCBI database. Diversity within specific ecosystems and microbial community structures was analyzed with Qiime 2. Differences were determined by repeated measures ANOVA and post hoc pairwise comparisons using Tukey's test. Taxonomic classification data were evaluated with a dual hierarchal dendrogram.

diet-induced (DIO) mice = test: Body weight study in diet-induced (DIO) mice (Example 9); format: in vivo, C57BL/6NTac mice
Method: This example provides results of a study of DA plus another compound (CQL) on body weight in diet-induced (DIO) mice. Adult C57BL/6NTac mice were fed with a high fat diet (60%). […] The study period was for 56 days+2-3 days testing period afterward. Body weight change measure 3× per week, food and water consumption on days 0, 12, 28, 42 and 56. Metabolic biomarkers were measured on days 28 and 56. Cytokine analysis on Days 28 and 56. Serum levels of GLP-1, GLP-2, and CCK at 1 h after dosing on Days 1 and 56, and at 2 h after dosing on Day 7 (dosing (>6 h fasting prior to dosing until after blood collection); and serum level of PPY on Day 56.

[3] = system: mouse acute lung injury plus hyperthermia model; test: Mouse acute lung injury plus hyperthermia model (Example 7); format: in vivo; details: LPS plus hyperthermia, CD-1 mice
Method: Lung lavage fluid was measured and cytokine analysis.

[4] = AMLN diet mice, daily gavage, week 4, DA vs vehicle
[5] = treatment at 4 weeks versus baseline and control
[6] = DA 92.4 mg/kg gavage BID, vs vehicle
[7] = DA 92.4 mg/kg gavage BID, vs vehicle, no significant difference
[8] = gavage BID (DA 92.4 mg/kg, CQL 50 mg/kg)

In the case of `CC(=O)[O-].CC[N+](CC)(CC(=O)Nc1c(C)cccc1C)Cc1ccccc1` [DA, denatonium acetate], the “Eotaxin: Decreased Percentage Compared to Vehicle” value [1] was −18.6%, the “G-CSF: Decreased Percentage Compared to Vehicle” value [1] was −37.5% and the “GM-CSF: Decreased Percentage Compared to Vehicle” value [1] was −2.3%. The “IFN-γ: Decreased Percentage Compared to Vehicle” value [1] was −37.3%, the “IL-1α: Decreased Percentage Compared to Vehicle” value [1] was −18.2% and the “IL-1β: Decreased Percentage Compared to Vehicle” value [1] was −12.0%. For the same compound, the “IL-3: Decreased Percentage Compared to Vehicle” value [1] was −74.5%, the “IL-5: Decreased Percentage Compared to Vehicle” value [1] was −29.1% and the “IL-6: Decreased Percentage Compared to Vehicle” value [1] was −34.2%. For the same compound, the “IL-10: Decreased Percentage Compared to Vehicle” value [1] was −92.5%, the “IL-12 (p70): Decreased Percentage Compared to Vehicle” value [1] was −28.0% and the “IL-17: Decreased Percentage Compared to Vehicle” value [1] was −21.2%. For the same compound, the “KC: Decreased Percentage Compared to Vehicle” value [1] was −21.6%, the “LIX: Decreased Percentage Compared to Vehicle” value [1] was −7.3% and the “MCP-1: Decreased Percentage Compared to Vehicle” value [1] was −24.2%. For the same compound, the “MIG: Decreased Percentage Compared to Vehicle” value [1] was −13.2%, the “MIP-1α: Decreased Percentage Compared to Vehicle” value [1] was −3.4% and the “MIP-1β: Decreased Percentage Compared to Vehicle” value [1] was −10.2%. For the same compound, the “MIP-2: Decreased Percentage Compared to Vehicle” value [1] was −76.3%, the “RANTES: Decreased Percentage Compared to Vehicle” value [1] was −20.6% and the “Microbiome pathways for biosynthesis of unsaturated fatty acids” value ([2]; 4-week DA treatment) was “significant enrichment”. For the same compound, the “Microbiome pathways for glycolysis and gluconeogenesis” value ([2]; 4-week DA treatment) was “significant enrichment”, the “Microbiome pathways for lysine degradation” value ([2]; 4-week DA treatment) was “significant enrichment” and the “Microbiome pathways for metabolism of arachidonic acid” value ([2]; 4-week DA treatment) was “significant enrichment”. For the same compound, the “Microbiome pathways for metabolism of cofactors and vitamins” value ([2]; 4-week DA treatment) was “significant enrichment”, the Microbiome phosphatidylinositol signaling ([2]; 4-week DA treatment) was “significant enrichment” and the “Microbiome signaling for arginine and ornithine metabolism” value ([2]; 4-week DA treatment) was “significantly decreased”. The SCFAs in feces ([2]; AMLN diet mice, DA treatment) was “mitigated the diet-induced decrease”, the “Proteobacteria (phylum) in fecal microbiome” value ([2]; AMLN diet mice, daily gavage (30 mg/mL in water), week 4, DA vs vehicle) was “significant increases” and the “Cyanobacteria (phylum) in fecal microbiome” value [2, 4] was “significant increases”. The “Deferribacteres (phylum) in fecal microbiome” value [2, 4] was “significant decreases”, the “Firmicutes (phylum) in fecal microbiome” value [2, 4] was “significant decreases” and the “Spirochetes (phylum) in fecal microbiome” value [2, 4] was “significant decreases”. The “Verrucomicrobia (phylum) in fecal microbiome” value [2, 4] was “significant increases”, the “Diversity within ecosystems and microbial communities” value ([2]; DA versus vehicle group at week 4, p<0.05) was “significantly less diversity” and the “Barnesiella (genus) in microbiome” value [2, 5] was “Significantly Decreased”. The “Brenneria (genus) in microbiome” value [2, 5] was “Significantly Increased”, the “Candidatus soleaferrea (genus) in microbiome” value [2, 5] was “Significantly Decreased” and the “Clostridium (genus) in microbiome” value [2, 5] was “Significantly Decreased”. For the same compound, the “Dehalobacterium (genus) in microbiome” value [2, 5] was “Significantly Decreased”, the “Dorea (genus) in microbiome” value [2, 5] was “Significantly Decreased” and the “Erysipelatoclostridium (genus) in microbiome” value [2, 5] was “Significantly Increased”. The “Escherichia (genus) in microbiome” value [2, 5] was “Significantly Increased”, the “Flavonifractor (genus) in microbiome” value [2, 5] was “Significantly Decreased” and the “Lachnoclostridium (genus) in microbiome” value [2, 5] was “Significantly Decreased”. The “Oscillibacter (genus) in microbiome” value [2, 5] was “Significantly Decreased”, the “Oscillospira (genus) in microbiome” value [2, 5] was “Significantly Decreased” and the “Parabacteroides (genus) in microbiome” value [2, 5] was “Significantly Increased”. The “Peptoclostridium (genus) in microbiome” value [2, 5] was “Significantly Increased”, the “Shigella (genus) in microbiome” value [2, 5] was “Significantly Increased” and the “Sutterella (genus) in microbiome” value [2, 5] was “Significantly Increased”. For the same compound, the “Bacteroidetes (phylum) in microbiome” value ([2]; week 4, not marked as significant) was “decreased”, the Serum glucose levels (diet-induced (DIO) mice; DA 92.4 mg/kg gavage BID) was “did not show a significant effect” and the “Serum GLP-1 levels at Day 56” value (diet-induced (DIO) mice; DA 92.4 mg/kg gavage BID, 1 h after dosing, vs vehicle) was “significantly increased”. For the same compound, the “Serum GLP-1 levels at Day 7” value (diet-induced (DIO) mice; DA 92.4 mg/kg gavage BID, 2 h after dosing, vs vehicle) was “significantly increased”, the “Body weight gain at day 57” value (diet-induced (DIO) mice; DA 92.4 mg/kg gavage BID, compared to vehicle and CQL) was “significantly reduced” and the “Serum CCK levels at Day 56” value (diet-induced (DIO) mice; [6]) was “significantly increased”. For the same compound, the “Serum GLP-2 levels at Day 56” value (diet-induced (DIO) mice; [6]) was “significantly increased”, the “Serum PYY levels at Day 56” value (diet-induced (DIO) mice; [6]) was “significantly increased” and the “Serum insulin level at Day 28” value (diet-induced (DIO) mice; [6]) was “significantly reduced”. The “Serum LDL levels at day 28” value (diet-induced (DIO) mice; [7]) was “noticeable decrease”, the “Serum LDL levels at day 56” value (diet-induced (DIO) mice; [7]) was “noticeable decrease” and the “Serum HbA1c level at Day 28” value (diet-induced (DIO) mice; [8]) was “significantly reduced”. For the same compound, the “Serum HbA1c level at Day 56” value (diet-induced (DIO) mice; [8]) was “considerably increased”, the “Daily water intake at Day 28” value (diet-induced (DIO) mice; gavage BID (DA 92.4 mg/kg, CQL 50 mg/kg), vs vehicle) was “significantly increased” and the “Protein concentration in lung lavage fluid” value ([3]; iv bolus 3 mg/kg QD) was “drastic but not significantly reduced”. The “Protein concentration in lung lavage fluid” value ([3]; oral 92.4 mg/kg BID) was “drastic but not significantly reduced”.
